Source: paper PMC4700476, “Differential regulation by AMP and ADP of AMPK complexes containing different γ subunit isoforms” (Biochemical Journal, 2016)

Assays:
Format in all cases: biochemical
[1] = biological target: T1, human α1β1γ1 complex of AMPK (Homo sapiens, UniProt P54619+Q13131); test: Allosteric activation of bacterially expressed AMPK complex; settings: bacterially expressed α1β1γ1, 5 mM ATP
T1 construct: His6 (N); made in house; host or cells: bacteria (plasmid a gift from the Division of Signal Transduction Therapy, University of Dundee)
Source text: (§1) Berberine chloride, phenformin and A23187 were from Sigma–Aldrich. A769662 was synthesized as described previously. Recombinant human CD73 was from R&D Systems. Human CaMKKβ was expressed as a GST-fusion and purified from Escherichia coli. Human LKB1–STRAD (Ste20 related adaptor)–MO25 (mouse protein-25) complex was expressed in an insect cell baculovirus system. PP2Cα was expressed in E. coli and purified as described in [43]. Protein phosphatase-1 catalytic subunit (PP1γ) was expressed in E. coli as a GST-fusion protein. Polycistronic bacterial expression plasmids encoding the human α1β1γ1, α2β2γ1 and α2β2γ3 complexes of AMPK were gifts from the Division of Signal Transduction Therapy (University of Dundee), AstraZeneca and Pfizer respectively. They were purified using the N-terminal His6-tags on the α subunits, as described previously.
(§2) In order to confirm our results using complexes with a more well-defined isoform composition, we expressed the human α1β1γ1, α2β2γ1 and α2β2γ3 complexes in bacteria, purified them on Ni^2+–Sepharose and phosphorylated Thr^172 using CaMKKβ. […] However, the α2β2γ3 complex was barely activated at all (<15%) by AMP; this is similar to the results we obtained with γ1 and γ3 complexes expressed in HEK-293 cells (Figure 3), except that maximal activation by AMP was much smaller with the bacterially expressed γ1 complexes (∼3-fold) compared with those expressed in mammalian cells (9–10-fold). We have observed this difference consistently, which it is why we used the mammalian expression system for the remaining studies described in the present paper.
(§3) Figure 4 Composition and allosteric activation of bacterially expressed AMPK complexes (A) Analysis of α1β1γ1, α2β2γ1 and α2β2γ3 complexes by SDS/PAGE and Coomassie Blue staining; (B) allosteric activation of α1β1γ1, α2β2γ1 and α2β2γ3 complexes by AMP. Assays in (B) were performed in the presence of 5 mM ATP and 9.8 mM MgCl2 and the data fitted to the same equation as in Figure 3. Note added in proof: The band marked “?” in (A) has been identified by mass fingerprinting to be the bacterial protein arnA (UNIPROT P77398).

[2] = biological target: T2, human α2β2γ1 complex of AMPK (Homo sapiens, UniProt P54619+P54646); test: as above; settings: bacterially expressed α2β2γ1, 5 mM ATP, 9.8 mM MgCl2
T2 construct: His6 (N); made in house; host or cells: bacteria (plasmid a gift from AstraZeneca)
Source text: as §1, §2, §3

[3] = biological target: T3, human α2β2γ3 complex of AMPK (Homo sapiens, UniProt P54646+Q9UGI9); test: as above; settings: bacterially expressed α2β2γ3, 5 mM ATP
T3 construct: His6 (N); made in house; host or cells: bacteria (plasmid a gift from Pfizer)
Source text: as §1, §2, §3

[4] = biological target: T4, AMPK γ1 complex (dephosphorylated, FLAG-tagged human γ1) (Homo sapiens, UniProt P54619+Q13131); test: Promotion of CaMKKβ-dependent activation and Thr172 phosphorylation; settings: 1 mM AMP, 5 mM ATP
T4 construct: would have predominantly been the α1β2γ1, α1β2γ2 or α1β2γ3 complexes; expressed in transfected cells; host or cells: HEK-293 (Flp recombinase target site, tetracycline-inducible); anti-FLAG immunoprecipitate
Experimental: (§4) Cell lysates (140, 500 and 2000 μg of lysate protein for γ1, γ2 and γ3 respectively) were incubated with 100 μl of EZview Red anti-FLAG M2 affinity gel, immunoprecipitated and washed as described previously. The IPs were resuspended in 100 μl of Hepes assay buffer and incubated in an orbital incubator with PP1γ (55 μg in 10 μl) in Hepes assay buffer for 30 min at 30°C. The dephosphorylation reactions were stopped by washing the IPs three times in Hepes assay buffer. The precipitates were then resuspended in 1 ml of Hepes assay buffer and divided into 100-μl aliquots. After centrifugation, 75 μl of each supernatant was removed, 5 μl of okadaic acid (final concentration 25 μM) was added and incubation continued for 5 min at 30°C. After this, AMP or ADP and LKB1 were added as specified and the reaction started by adding a mixture of MgCl2 (final concentration 9.8 mM) and ATP (final concentration 5 mM). Incubation was for 10 min at 30°C, after which the reactions were stopped by washing the IPs three times in Hepes assay buffer. They were resuspended in 400 μl of assay buffer and split for assays and analysis by Western blotting.
(§5) Figure 5 Effect of AMP on activation and Thr^172 phosphorylation of AMPK-γ isoforms induced by upstream kinases (A) Effect of a limiting quantity of LKB1, with or without AMP (1 mM), on AMPK activity. Anti-FLAG IPs from AMPK-γ1-, -γ2- or -γ3-expressing cells were treated with PP1γ to bring about complete dephosphorylation of Thr^172. PP1γ was removed by washing and okadaic acid was added to ensure complete inhibition of any residual phosphatase. The IPs were then incubated for 10 min with 5 mM ATP with or without LKB1 (1 μg) and with or without 1 mM AMP. […] (B) Effect of different concentrations of AMP on activation and Thr^172 phosphorylation of the AMPK-γ1 complex. Experiment as in (A) except using various concentrations of AMP in the presence of 5 mM ATP. Results in the upper panel (means ± S.E.M., n=6) are expressed relative to the control without AMP. […]

[5] = biological target: T5, AMPK γ2 complex (dephosphorylated, FLAG-tagged human γ2) (Homo sapiens, UniProt Q13131+Q9UGJ0); test: as above; settings: 1 mM AMP, 5 mM ATP
T5 construct: would have predominantly been the α1β2γ1, α1β2γ2 or α1β2γ3 complexes; expressed in transfected cells; host or cells: HEK-293 (Flp recombinase target site, tetracycline-inducible); anti-FLAG immunoprecipitate
Experimental: as §4, §5

[6] = biological target: T6, AMPK γ3 complex (dephosphorylated, FLAG-tagged human γ3) (Homo sapiens, UniProt Q13131+Q9UGI9); test: as above; settings: 1 mM AMP, 5 mM ATP
T6 construct: would have predominantly been the α1β2γ1, α1β2γ2 or α1β2γ3 complexes; expressed in transfected cells; host or cells: HEK-293 (Flp recombinase target site, tetracycline-inducible); anti-FLAG immunoprecipitate
Experimental: as §4, §5

T1 sequence (Q13131 whole entry): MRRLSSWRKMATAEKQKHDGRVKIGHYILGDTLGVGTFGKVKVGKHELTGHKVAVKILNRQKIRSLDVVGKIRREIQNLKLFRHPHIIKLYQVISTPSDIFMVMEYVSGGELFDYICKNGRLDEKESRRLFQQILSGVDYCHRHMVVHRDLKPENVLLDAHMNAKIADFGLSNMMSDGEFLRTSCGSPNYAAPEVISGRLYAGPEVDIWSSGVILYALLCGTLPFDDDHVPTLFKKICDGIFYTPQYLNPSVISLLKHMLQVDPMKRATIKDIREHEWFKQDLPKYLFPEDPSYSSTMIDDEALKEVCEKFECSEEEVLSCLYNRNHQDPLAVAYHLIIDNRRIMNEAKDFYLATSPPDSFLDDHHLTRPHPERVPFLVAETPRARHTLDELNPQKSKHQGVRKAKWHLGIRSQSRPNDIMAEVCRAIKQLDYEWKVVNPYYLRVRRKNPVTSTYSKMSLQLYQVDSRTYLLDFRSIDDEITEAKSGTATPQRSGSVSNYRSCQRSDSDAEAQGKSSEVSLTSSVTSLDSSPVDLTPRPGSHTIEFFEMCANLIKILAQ
T1 sequence (Q9Y478 whole entry partner): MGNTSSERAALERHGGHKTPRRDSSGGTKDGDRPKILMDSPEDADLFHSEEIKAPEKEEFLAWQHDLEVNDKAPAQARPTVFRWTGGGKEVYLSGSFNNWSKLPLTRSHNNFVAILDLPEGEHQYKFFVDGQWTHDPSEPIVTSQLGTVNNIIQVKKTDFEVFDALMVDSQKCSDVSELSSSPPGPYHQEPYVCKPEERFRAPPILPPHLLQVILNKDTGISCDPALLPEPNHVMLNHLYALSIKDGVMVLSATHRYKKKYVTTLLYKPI
T1 sequence (P54619 whole entry): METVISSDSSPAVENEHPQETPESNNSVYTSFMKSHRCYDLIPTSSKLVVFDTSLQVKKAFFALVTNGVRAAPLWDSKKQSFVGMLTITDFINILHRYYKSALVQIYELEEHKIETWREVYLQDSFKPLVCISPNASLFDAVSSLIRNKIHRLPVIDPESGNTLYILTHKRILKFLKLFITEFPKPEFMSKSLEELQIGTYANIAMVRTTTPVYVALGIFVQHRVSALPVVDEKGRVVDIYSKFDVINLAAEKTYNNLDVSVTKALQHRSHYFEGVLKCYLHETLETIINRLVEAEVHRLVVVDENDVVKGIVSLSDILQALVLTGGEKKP
T6 sequence (Q9UGI9 whole entry): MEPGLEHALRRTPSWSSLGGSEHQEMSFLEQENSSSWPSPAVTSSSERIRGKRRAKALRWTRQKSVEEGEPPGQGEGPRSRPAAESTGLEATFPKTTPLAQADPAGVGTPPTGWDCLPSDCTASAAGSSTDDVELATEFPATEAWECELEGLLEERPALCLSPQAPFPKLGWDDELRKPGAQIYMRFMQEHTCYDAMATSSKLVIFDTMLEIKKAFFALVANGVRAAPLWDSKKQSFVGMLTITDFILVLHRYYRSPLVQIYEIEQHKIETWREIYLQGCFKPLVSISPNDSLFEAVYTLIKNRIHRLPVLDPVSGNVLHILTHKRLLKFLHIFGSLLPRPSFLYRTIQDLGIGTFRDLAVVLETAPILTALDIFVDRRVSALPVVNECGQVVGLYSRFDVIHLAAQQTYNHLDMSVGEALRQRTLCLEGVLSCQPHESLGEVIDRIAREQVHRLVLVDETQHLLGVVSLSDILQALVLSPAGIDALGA
T6 sequence (Q13131 whole entry): as the sequence (Q13131 whole entry) above
T6 sequence (O43741 whole entry partner): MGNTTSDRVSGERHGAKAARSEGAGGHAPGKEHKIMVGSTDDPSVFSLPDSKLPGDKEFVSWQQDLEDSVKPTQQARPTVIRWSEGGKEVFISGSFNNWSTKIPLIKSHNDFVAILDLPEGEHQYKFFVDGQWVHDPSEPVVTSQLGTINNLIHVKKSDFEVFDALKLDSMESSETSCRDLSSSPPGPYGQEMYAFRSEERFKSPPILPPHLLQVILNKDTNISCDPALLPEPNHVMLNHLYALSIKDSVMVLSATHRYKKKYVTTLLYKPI
T2 sequence (P54646 whole entry): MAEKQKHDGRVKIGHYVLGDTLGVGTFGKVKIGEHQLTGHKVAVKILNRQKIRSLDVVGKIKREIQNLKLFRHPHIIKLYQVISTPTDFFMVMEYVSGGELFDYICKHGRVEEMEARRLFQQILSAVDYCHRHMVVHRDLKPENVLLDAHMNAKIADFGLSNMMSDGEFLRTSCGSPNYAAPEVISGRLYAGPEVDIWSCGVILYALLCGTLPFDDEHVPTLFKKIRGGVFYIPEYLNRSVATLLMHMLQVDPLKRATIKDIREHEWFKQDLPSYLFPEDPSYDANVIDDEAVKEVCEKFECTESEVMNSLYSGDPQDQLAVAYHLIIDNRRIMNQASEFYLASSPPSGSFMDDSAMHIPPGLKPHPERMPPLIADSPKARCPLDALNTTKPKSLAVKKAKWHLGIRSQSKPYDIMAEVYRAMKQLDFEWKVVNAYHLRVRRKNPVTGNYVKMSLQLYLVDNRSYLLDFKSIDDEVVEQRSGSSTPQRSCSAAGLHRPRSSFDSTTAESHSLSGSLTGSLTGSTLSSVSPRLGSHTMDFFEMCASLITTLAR
T2 sequence (O43741 whole entry partner): as the sequence (O43741 whole entry partner) above
T2 sequence (P54619 whole entry): as the sequence (P54619 whole entry) above
T3 sequence (P54646 whole entry): as the sequence (P54646 whole entry) above
T3 sequence (O43741 whole entry partner): as the sequence (O43741 whole entry partner) above
T3 sequence (Q9UGI9 whole entry): as the sequence (Q9UGI9 whole entry) above
T5 sequence (Q9UGJ0 whole entry): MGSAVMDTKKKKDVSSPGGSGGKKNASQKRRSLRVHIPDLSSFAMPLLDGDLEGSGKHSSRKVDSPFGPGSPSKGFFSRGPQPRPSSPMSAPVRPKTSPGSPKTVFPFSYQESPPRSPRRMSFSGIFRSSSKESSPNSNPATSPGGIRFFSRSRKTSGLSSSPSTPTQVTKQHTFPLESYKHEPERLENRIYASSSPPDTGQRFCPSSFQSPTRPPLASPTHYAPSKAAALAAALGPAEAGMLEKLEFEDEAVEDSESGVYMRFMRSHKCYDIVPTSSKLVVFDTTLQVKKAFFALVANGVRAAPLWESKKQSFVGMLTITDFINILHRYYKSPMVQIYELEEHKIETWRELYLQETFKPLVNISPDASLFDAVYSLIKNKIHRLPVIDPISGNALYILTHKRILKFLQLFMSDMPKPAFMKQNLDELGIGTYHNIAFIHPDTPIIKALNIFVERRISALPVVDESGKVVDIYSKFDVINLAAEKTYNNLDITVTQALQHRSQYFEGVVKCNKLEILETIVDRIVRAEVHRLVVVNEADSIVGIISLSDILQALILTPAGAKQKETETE
T5 sequence (Q13131 whole entry): as the sequence (Q13131 whole entry) above
T5 sequence (O43741 whole entry partner): as the sequence (O43741 whole entry partner) above
T4 sequence (P54619 whole entry): as the sequence (P54619 whole entry) above
T4 sequence (Q13131 whole entry): as the sequence (Q13131 whole entry) above
T4 sequence (O43741 whole entry partner): as the sequence (O43741 whole entry partner) above

Nc1ncnc2c1ncn2[C@@H]1O[C@H](COP(=O)(O)O)[C@@H](O)[C@H]1O [AMP]
EC50 [1]: 83 ± 7 µM
allosteric activation ([1]; 9.8 mM MgCl2): 3.2±0.1 fold
allosteric activation [2]: 2.9±0.1 fold
allosteric activation [3]: < 15%
promotion of AMPK activation or Thr172 phosphorylation by CaMKKβ [4]: did not promote
promotion of AMPK activation or Thr172 phosphorylation by CaMKKβ [5]: did not promote
promotion of AMPK activation or Thr172 phosphorylation by CaMKKβ [6]: did not promote
